Measured values taken from patent US4851211A, “LHRH analog formulations” (Abbott Laboratories, priority 1986, dated 1989).

Key:
[1] = no counterion
[2] = ionizable site of leuprolide; cited from earlier work
[3] = Bioabsorption testing: leuprolide levels after inhalation of solution aerosol (radioimmunoassay); conditions: aerosol compared with comparable intravenous dose
Procedure: Healthy male beagle dogs (9-18 months old) were provided with free access to food during entire study. There were three dogs of each sex in each treatment group. Body weight, food consumption and other pertinent clinical signs were monitored at a regular basis during the study. […] Drug administration was carried out through 2 weeks. Leuprolide plasma concentrations was determined during day 1 of the study in order to evaluate bioabsorption of leuprolide from the aerosol. Blood samples of approximately 2-3 ml were obtained from the jugular vein and allowed to clot. After centrifugation, the serum fraction was removed and assayed for leuprolide using a radioimmunoassay technique. Relative absorption of leuprolide via the inhalation route of administration was estimated using mean historical data from representative intravenously administered formulations.

SMILES: CCNC(=O)[C@@H]1CCCN1C(=O)[C@H](CCCNC(=N)N)NC(=O)[C@H](CC(C)C)NC(=O)[C@@H](CC(C)C)NC(=O)[C@H](Cc1ccc(O)cc1)NC(=O)[C@H](CO)NC(=O)[C@H](Cc1c[nH]c2ccccc12)NC(=O)[C@H](Cc1c[nH]cn1)NC(=O)[C@@H]1CCC(=O)N1 [leuprolide, 5-Oxo-L-prolyl-L-histidyl-L-tryptophanyl-L-seryl-L-tyrosyl-D-leucyl-L-leucyl-L-arginyl-L-prolylethylamide acetate]
- solubility of leuprolide ([1]; mixtures of ethyl alcohol and fluorocarbons): ~3 mg/mL
- equilibrium solubility of leuprolide ([1]; mixtures of fluorocarbons, ethyl alcohol and water): ~5 mg/mL
- pKa, guanidine nitrogen of arginine [2]: approximately 13.0
- pKa, imidazolyl nitrogen of histidine [2]: approximately 6.0
- pKa, phenolic hydroxyl of tyrosine [2]: approximately 10.0
- plasma peak concentration [3]: approximately equals that of a comparable dose administered intravenously
